Experimental data taken from ChEMBL document CHEMBL1133689, “7-Chloro-4,5-dihydro-8-(1,2,4-triazol-4-yl)-4-oxo-1,2,4-triazolo[1, 5-a]quinoxaline-2-carboxylates as novel highly selective AMPA receptor antagonists” (J Med Chem, 2000).
pIC50, pKi: −log10 of the molar value.

Key:
Mus musculus [1] = organism: Mus musculus; assay: Ability to inhibit depolarizations induced by NMDA in mouse cortical wedge preparations.; type: functional, organism-based
[2] = molecular target: Glutamate receptor ionotropic, kainate (Rattus norvegicus) (UniProt P22756+Q01812+P42260+P42264+Q63273); assay: Compound was evaluated for inhibition of binding of [3H]KA to specific binding at Ka receptor in rat cortical membrane at 100 uM; type: cell membranes
Mus musculus [3] = organism: Mus musculus; assay: Ability to inhibit depolarizations induced by AMPA in mouse cortical wedge preparations; type: functional, organism-based
[4] = Compound was evaluated for inhibition of binding of [3H]glycine to specific binding at glycine receptor in rat cortical membrane at 100 uM; type: cell membranes
[5] = molecular target: Glutamate receptor ionotropic, AMPA (Rattus norvegicus, UniProt P19490+P19491+P19492+P19493); assay: Compound was evaluated for inhibition of binding of [3H]AMPA to specific binding at Ionotropic glutamate receptor AMPA in rat cortical membrane; type: cell membranes
[6] = Compound was evaluated for inhibition of binding of [3H]glycine to specific binding at glycine receptor in rat cortical membrane; type: cell membranes
[7] = molecular target: Glutamate receptor ionotropic, kainate; assay: Compound was evaluated for inhibition of binding of [3H]KA to specific binding at Ka receptor in rat cortical membrane; type: cell membranes

pIC50 (Mus musculus [1]) | inhibition [2] | pIC50 (Mus musculus [3]) | inhibition [4] | pKi [5] | pKi [6] | pIC50 [7] | Compound
4.00 | 42% | 4.82 | 15% | 6.15 | – | – | CCOC(=O)c1nc2c(O)nc3cc(Cl)c(-n4cnnc4)cc3n2n1
4.12 | 41% | 4.12 | – | – | 5.66 | – | O=C(O)c1nc2c(O)nc3cc(Cl)c([N+](=O)[O-])cc3n2n1
< 4.00 | 24% | 4.66 | 39% | 5.64 | – | – | CCOC(=O)c1nc2c(O)nc3cc(Cl)c(-n4ccnc4)cc3n2n1
5.33 | 8% | 4.28 | – | – | 7.05 | – | O=C(O)c1cc(O)c2c(Cl)cc(Cl)cc2n1
– | – | – | – | 6.01 | – | 4.77 | O=C(O)c1nc2c(=O)[nH]c3cc(Cl)c(-n4ccnc4)cc3n2n1
– | – | 6.70 | 3% | – | – | – | NS(=O)(=O)c1cccc2c1c([N+](=O)[O-])cc1nc(O)c(O)nc12 [NBQX]
– | – | – | 45% | – | – | – | O=C(O)c1nc2c(O)nc3cc(Cl)c(-n4ccnc4)cc3n2n1
4.34 | – | 5.64 | – | 6.85 | 4.47 | 4.94 | O=C(O)c1nc2c(O)nc3cc(Cl)c(-n4cnnc4)cc3n2n1 [TQX-173]
